Consider 35 compounds from the NIST ThermoML archive (doi:10.1016/j.jct.2012.06.009).

This series in a line: activity coefficient (dimensionless); of the first substance listed, at infinite dilution; xn = mol fraction of the nth substance listed. Conditions: 101 kPa, Liquid, Chromatography, x1 = 0.

Numbers after ± are expanded uncertainties.

For `CC(C)=O` [acetone] + CCCCCCCCCCCCCCCC(=O)O, the activity coefficient was found to be 1.49 ± 0.13 (340.17 K); 1.49 ± 0.13 (340.19 K); 1.41 ± 0.12 (347.93 K); 1.42 ± 0.12 (348.01 K); 1.32 ± 0.11 (358.23 K); 1.34 ± 0.11 (358.32 K).
For the compound `COc1ccccc1` [anisole] + CCCCCCCCCC(=O)O, the activity coefficient runs as follows: (353.25 K) 1.43 ± 0.12; (353.3 K) 1.45 ± 0.12.
In the case of `COc1ccccc1` [anisole] + CCCCCCCCCCCC(=O)O, the activity coefficient (333.26 K) is 1.37 ± 0.12, the activity coefficient (343.65 K) amounted to 1.35 ± 0.11, the activity coefficient (353.25 K) was determined as 1.33 ± 0.11 and the activity coefficient (353.3 K) was found to be 1.35 ± 0.11.
As to `COc1ccccc1` [anisole] + CCCCCCCCCCCCCC(=O)O, the activity coefficient (314.1 K) worked out at 1.32 ± 0.11; the activity coefficient (314.24 K) is 1.3 ± 0.11; the activity coefficient (333.26 K) was 1.29 ± 0.11; the activity coefficient (333.38 K) amounted to 1.27 ± 0.11; the activity coefficient (353.25 K) stood at 1.24 ± 0.1; the activity coefficient (353.3 K) stood at 1.21 ± 0.1.
`COc1ccccc1` [anisole] + CCCCCCCCCCCCCCCC(=O)O: the activity coefficient by setting is: (340.19 K) 1.3 ± 0.11; (348.01 K) 1.28 ± 0.11; (358.22 K) 1.25 ± 0.1.
Turning to `CCCCO` [butan-1-ol] + CCCCCCCCCC(=O)O, the activity coefficient was 1.48 ± 0.13 (333.26 K), 1.53 ± 0.13 (333.35 K), 1.34 ± 0.11 (353.25 K) and 1.32 ± 0.11 (353.3 K).
`CCCCO` [butan-1-ol] + CCCCCCCCCCCC(=O)O: the activity coefficient reads like this: (314.24 K) 1.7 ± 0.14; (333.26 K) 1.54 ± 0.13; (333.38 K) 1.51 ± 0.13; (353.25 K) 1.34 ± 0.11; (353.3 K) 1.36 ± 0.11.
Turning to `CCCCO` [butan-1-ol] + CCCCCCCCCCCCCC(=O)O, the activity coefficient was determined as 1.49 ± 0.13 (314.1 K); 1.54 ± 0.13 (314.24 K); 1.45 ± 0.12 (333.26 K); 1.42 ± 0.12 (333.38 K); 1.22 ± 0.11 (353.25 K); 1.32 ± 0.12 (353.3 K).
Turning to `CCCCO` [butan-1-ol] + CCCCCCCCCCCCCCCC(=O)O, the activity coefficient came out at 1.65 ± 0.14 (340.19 K), 1.55 ± 0.13 (348.01 K) and 1.43 ± 0.12 (358.32 K).
For `CCC(C)O` (stereo not drawn) [butan-2-ol] + CCCCCCCCCC(=O)O, the activity coefficient (314.1 K) is 1.33 ± 0.11; the activity coefficient (314.24 K) was 1.35 ± 0.11; the activity coefficient (333.26 K) came out at 1.17 ± 0.097; the activity coefficient (333.38 K) is 1.16 ± 0.096; the activity coefficient (353.25 K) came to 1.05 ± 0.087; the activity coefficient (353.3 K) was 1.04 ± 0.085.
`CCC(C)O` (stereo not drawn) [butan-2-ol] + CCCCCCCCCCCC(=O)O: the activity coefficient worked out at 1.28 ± 0.11 (314.1 K); 1.3 ± 0.11 (314.24 K); 1.17 ± 0.097 (333.38 K); 1.06 ± 0.088 (353.25 K); 1.08 ± 0.089 (353.3 K).
Turning to `CCC(C)O` (stereo not drawn) [butan-2-ol] + CCCCCCCCCCCCCC(=O)O, the activity coefficient (314.1 K) was determined as 1.17 ± 0.097; the activity coefficient (314.24 K) came to 1.21 ± 0.1; the activity coefficient (333.26 K) was 1.12 ± 0.093; the activity coefficient (333.38 K) came out at 1.11 ± 0.092; the activity coefficient (353.25 K) stood at 1.05 ± 0.087; the activity coefficient (353.3 K) stood at 1.04 ± 0.086.
For the compound `CCC(C)O` (stereo not drawn) [butan-2-ol] + CCCCCCCCCCCCCCCC(=O)O, the activity coefficient came to 1.26 ± 0.1 (340.19 K), 1.2 ± 0.1 (348.01 K) and 1.12 ± 0.092 (358.32 K).
On to `Clc1ccccc1` [chlorobenzene] + CCCCCCCCCC(=O)O, for which the activity coefficient is, setting by setting: (333.26 K) 1.16 ± 0.096; (333.38 K) 1.18 ± 0.098; (353.25 K) 1.17 ± 0.097; (353.3 K) 1.15 ± 0.096.
Consider `Clc1ccccc1` [chlorobenzene] + CCCCCCCCCCCC(=O)O, for which the activity coefficient stood at 1.11 ± 0.091 (314.1 K); 1.12 ± 0.092 (314.24 K); 1.08 ± 0.089 (333.26 K); 1.07 ± 0.089 (343.65 K); 1.07 ± 0.088 (353.25 K).
Regarding `Clc1ccccc1` [chlorobenzene] + CCCCCCCCCCCCCC(=O)O, the activity coefficient reads like this: (314.1 K) 0.983 ± 0.081; (314.24 K) 0.998 ± 0.082; (333.26 K) 0.996 ± 0.082; (333.38 K) 0.982 ± 0.081; (353.25 K) 0.979 ± 0.081; (353.3 K) 0.961 ± 0.079.
As to `Clc1ccccc1` [chlorobenzene] + CCCCCCCCCCCCCCCC(=O)O, the activity coefficient reads like this: (340.19 K) 0.974 ± 0.08; (348.01 K) 0.957 ± 0.079; (358.22 K) 0.974 ± 0.08.
Regarding `C1CCCCC1` [cyclohexane] + CCCCCCCCCC(=O)O, the activity coefficient reads like this: (314.1 K) 1.44 ± 0.12; (314.24 K) 1.46 ± 0.12; (333.26 K) 1.39 ± 0.12; (333.38 K) 1.39 ± 0.12; (353.25 K) 1.35 ± 0.12; (353.3 K) 1.31 ± 0.11.
Regarding `C1CCCCC1` [cyclohexane] + CCCCCCCCCCCC(=O)O, the activity coefficient is, setting by setting: (314.1 K) 1.29 ± 0.11; (314.24 K) 1.28 ± 0.11; (333.38 K) 1.25 ± 0.1; (353.25 K) 1.2 ± 0.1; (353.3 K) 1.2 ± 0.1.
As to `C1CCCCC1` [cyclohexane] + CCCCCCCCCCCCCC(=O)O, the activity coefficient by setting is: (314.1 K) 1.09 ± 0.09; (314.24 K) 1.09 ± 0.09; (333.38 K) 1.07 ± 0.088; (353.25 K) 1.05 ± 0.087; (353.3 K) 1.02 ± 0.085.
For `C1CCCCC1` [cyclohexane] + CCCCCCCCCCCCCCCC(=O)O, the activity coefficient reads like this: (340.19 K) 1.03 ± 0.085; (348.01 K) 1.02 ± 0.084; (358.22 K) 1.01 ± 0.083.
Consider `CCO` [ethanol] + CCCCCCCCCC(=O)O, for which the activity coefficient is, setting by setting: (314.1 K) 2.12 ± 0.18; (314.24 K) 2.07 ± 0.18; (333.26 K) 1.73 ± 0.15; (333.38 K) 1.78 ± 0.15; (353.3 K) 1.48 ± 0.12.
With `CCO` [ethanol] + CCCCCCCCCCCC(=O)O, the activity coefficient runs as follows: (314.1 K) 1.92 ± 0.17; (314.24 K) 2.02 ± 0.17; (333.38 K) 1.79 ± 0.15; (353.25 K) 1.56 ± 0.13; (353.3 K) 1.57 ± 0.13.
With `CCO` [ethanol] + CCCCCCCCCCCCCC(=O)O, the activity coefficient (314.1 K) was determined as 1.82 ± 0.16; the activity coefficient (314.24 K) was 1.79 ± 0.15; the activity coefficient (333.26 K) was 1.67 ± 0.14; the activity coefficient (333.38 K) was found to be 1.67 ± 0.14; the activity coefficient (353.25 K) turned out to be 1.53 ± 0.13; the activity coefficient (353.3 K) was found to be 1.52 ± 0.13.
`CCO` [ethanol] + CCCCCCCCCCCCCCCC(=O)O: the activity coefficient (340.19 K) was determined as 1.93 ± 0.17, the activity coefficient (348.01 K) came to 1.8 ± 0.15 and the activity coefficient (358.23 K) was determined as 1.62 ± 0.14.
`CCOC(C)=O` [ethyl acetate] + CCCCCCCCCC(=O)O: the activity coefficient runs as follows: (314.1 K) 1.33 ± 0.11; (333.26 K) 1.25 ± 0.1; (333.38 K) 1.3 ± 0.11; (353.25 K) 1.21 ± 0.1.
With `CCOC(C)=O` [ethyl acetate] + CCCCCCCCCCCC(=O)O, the activity coefficient was determined as 1.37 ± 0.12 (314.1 K); 1.36 ± 0.11 (314.24 K); 1.28 ± 0.11 (333.38 K); 1.2 ± 0.1 (353.25 K); 1.21 ± 0.1 (353.3 K).
Turning to `CCOC(C)=O` [ethyl acetate] + CCCCCCCCCCCCCC(=O)O, the activity coefficient came out at 1.24 ± 0.1 (314.1 K); 1.21 ± 0.1 (314.24 K); 1.19 ± 0.099 (333.26 K); 1.19 ± 0.099 (333.38 K); 1.13 ± 0.094 (353.25 K); 1.12 ± 0.093 (353.3 K).
Take `CCOC(C)=O` [ethyl acetate] + CCCCCCCCCCCCCCCC(=O)O: the activity coefficient is, setting by setting: (340.19 K) 1.28 ± 0.11; (347.93 K) 1.2 ± 0.1; (358.22 K) 1.16 ± 0.096.
Consider `CCc1ccccc1` [ethylbenzene] + CCCCCCCCCC(=O)O, for which the activity coefficient by setting is: (333.26 K) 1.28 ± 0.11; (333.35 K) 1.3 ± 0.11; (353.3 K) 1.22 ± 0.1.
With `CCc1ccccc1` [ethylbenzene] + CCCCCCCCCCCC(=O)O, the activity coefficient was 1.22 ± 0.1 (314.24 K); 1.2 ± 0.1 (333.26 K); 1.19 ± 0.099 (333.38 K); 1.18 ± 0.098 (353.25 K); 1.18 ± 0.097 (353.3 K).
With `CCc1ccccc1` [ethylbenzene] + CCCCCCCCCCCCCC(=O)O, the activity coefficient by setting is: (338.27 K) 1.06 ± 0.087; (348.3 K) 1.06 ± 0.087; (358.33 K) 1.04 ± 0.085.
Take `CCc1ccccc1` [ethylbenzene] + CCCCCCCCCCCCCCCC(=O)O: the activity coefficient is, setting by setting: (340.19 K) 1.04 ± 0.085; (348.01 K) 1.05 ± 0.086; (358.22 K) 1.06 ± 0.087.
On to `CCCCCCC` [heptane] + CCCCCCCCCC(=O)O, for which the activity coefficient runs as follows: (314.1 K) 1.87 ± 0.16; (314.24 K) 1.9 ± 0.16; (333.26 K) 1.83 ± 0.16; (333.38 K) 1.82 ± 0.16; (353.3 K) 1.75 ± 0.15.
`CCCCCCC` [heptane] + CCCCCCCCCCCC(=O)O: the activity coefficient is, setting by setting: (314.1 K) 1.65 ± 0.14; (314.24 K) 1.67 ± 0.14; (333.26 K) 1.67 ± 0.14; (333.38 K) 1.66 ± 0.14; (353.25 K) 1.59 ± 0.14; (353.3 K) 1.62 ± 0.14.
